ChEMBL document CHEMBL1201862, “PubChem BioAssay data set” (2004)
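Interpolation was linear, between the two tested concentrations surrounding the appropriate level; five concentrations were tested over 48 hours in 96-well plates. GI50 is the concentration that inhibits growth by half.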 The source made the active and inactive calls. Rule as the data show it: active = GI50 up to about 1.1 µM and inactive = higher.

Assays:
Experiment in all cases: growth of human tumour cells (NCI), 48 h
786-0 = system: 786-0
A498 = system: A498
A549 = system: A549
ACHN = system: ACHN
BT-549 = system: BT-549
CAKI-1 = system: CAKI-1
COLO 205 = system: COLO 205
DU-145 = system: DU-145
EKVX = system: EKVX
HCC 2998 = system: HCC 2998
HCT-116 = system: HCT-116
HCT-15 = system: HCT-15
HL-60 = system: HL-60
HOP-62 = system: HOP-62
HOP-92 = system: HOP-92
HT-29 = system: HT-29
Hs-578T = system: Hs-578T
IGROV-1 = system: IGROV-1
K562 = system: K562
KM12 = system: KM12
M14 = system: M14
MCF7 = system: MCF7
MDA-MB-231 = system: MDA-MB-231
MDA-MB-435 = system: MDA-MB-435
MDA-N = system: MDA-N
MOLT-4 = system: MOLT-4
Malme-3M = system: Malme-3M
NCI-H226 = system: NCI-H226
NCI-H23 = system: NCI-H23
NCI-H460 = system: NCI-H460
NCI-H522 = system: NCI-H522
NCI/ADR-RES = system: NCI/ADR-RES
OVCAR-3 = system: OVCAR-3
OVCAR-4 = system: OVCAR-4
OVCAR-5 = system: OVCAR-5
OVCAR-8 = system: OVCAR-8
PC-3 = system: PC-3
RPMI-8226 = system: RPMI-8226
RXF 393 = system: RXF 393
SF-268 = system: SF-268
SF-295 = system: SF-295
SK-MEL-28 = system: SK-MEL-28
SK-MEL-2 = system: SK-MEL-2
SK-MEL-5 = system: SK-MEL-5
SK-OV-3 = system: SK-OV-3
SN12C = system: SN12C
SNB-19 = system: SNB-19
SNB-75 = system: SNB-75
SR = system: SR
SW-620 = system: SW-620
T47D = system: T47D
TK-10 = system: TK-10
U-251 = system: U-251
UACC-257 = system: UACC-257
UACC-62 = system: UACC-62
UO-31 = system: UO-31
CCRF-CEM = system: CCRF-CEM
SF-539 = system: SF-539

COc1ccc2[nH]c3cc4c(=O)c5cc(OC)ccc5[nH]c4cc3c(=O)c2c1 was tested, and the GI50 (786-0) was 99.1 µM (inactive), the GI50 (A498) was > 100 µM (inactive) and the GI50 (A549) was > 100 µM (inactive). For the same compound, the GI50 (ACHN) was > 100 µM (inactive), the GI50 (BT-549) was > 100 µM (inactive) and the GI50 (CAKI-1) was > 100 µM (inactive). For the same compound, the GI50 (COLO 205) was > 100 µM (inactive), the GI50 (DU-145) was > 100 µM (inactive) and the GI50 (EKVX) was > 100 µM (inactive). For the same compound, the GI50 (HCC 2998) was > 100 µM (inactive), the GI50 (HCT-116) was > 100 µM (inactive) and the GI50 (HCT-15) was over 100 µM. For the same compound, the GI50 (HL-60) was 10.8 µM (inactive), the GI50 (HOP-62) was 69.5 µM (inactive) and the GI50 (HOP-92) was > 100 µM (inactive). The GI50 (HT-29) was > 100 µM (inactive), the GI50 (Hs-578T) was > 100 µM (inactive) and the GI50 (IGROV-1) was > 100 µM (inactive). The GI50 (K562) was > 100 µM (inactive), the GI50 (KM12) was > 100 µM (inactive) and the GI50 (M14) was > 100 µM (inactive). The GI50 (MCF7) was > 100 µM (inactive), the GI50 (MDA-MB-231) was > 100 µM (inactive) and the GI50 (MDA-MB-435) was > 100 µM (inactive). For the same compound, the GI50 (MDA-N) was > 100 µM (inactive), the GI50 (MOLT-4) was > 100 µM (inactive) and the GI50 (Malme-3M) was > 100 µM (inactive). For the same compound, the GI50 (NCI-H226) was > 100 µM (inactive), the GI50 (NCI-H23) was > 100 µM (inactive) and the GI50 (NCI-H460) was > 100 µM (inactive). The GI50 (NCI-H522) was > 100 µM (inactive), the GI50 (NCI/ADR-RES) was > 100 µM (inactive) and the GI50 (OVCAR-3) was > 100 µM (inactive). For the same compound, the GI50 (OVCAR-4) was > 100 µM (inactive), the GI50 (OVCAR-5) was > 100 µM (inactive) and the GI50 (OVCAR-8) was > 100 µM (inactive). The GI50 (PC-3) was > 100 µM (inactive), the GI50 (RPMI-8226) was > 100 µM (inactive) and the GI50 (RXF 393) was > 100 µM (inactive). For the same compound, the GI50 (SF-268) was > 100 µM (inactive), the GI50 (SF-295) was > 100 µM (inactive) and the GI50 (SK-MEL-28) was > 100 µM (inactive). The GI50 (SK-MEL-2) was > 100 µM (inactive), the GI50 (SK-MEL-5) was > 100 µM (inactive) and the GI50 (SK-OV-3) was > 100 µM (inactive). For the same compound, the GI50 (SN12C) was > 100 µM (inactive), the GI50 (SNB-19) was > 100 µM (inactive) and the GI50 (SNB-75) was 26.9 µM (inactive). For the same compound, the GI50 (SR) was > 100 µM (inactive), the GI50 (SW-620) was > 100 µM (inactive) and the GI50 (T47D) was > 100 µM (inactive). The GI50 (TK-10) was > 100 µM (inactive), the GI50 (U-251) was > 100 µM (inactive) and the GI50 (UACC-257) was > 100 µM (inactive). For the same compound, the GI50 (UACC-62) was > 100 µM (inactive) and the GI50 (UO-31) was 97.5 µM (inactive).

For OC(CN1CCCCC1)c1ccc(/C=C/c2ccc(Cl)cc2)cc1 (configuration not stated), the GI50 (786-0) was 56.5 µM (inactive), the GI50 (A498) was 40 µM (inactive) and the GI50 (A549) was > 100 µM (inactive). For the same compound, the GI50 (ACHN) was > 100 µM (inactive), the GI50 (BT-549) was > 100 µM (inactive) and the GI50 (CCRF-CEM) was 70.5 µM (inactive). The GI50 (COLO 205) was 16.7 µM (inactive), the GI50 (DU-145) was > 100 µM (inactive) and the GI50 (EKVX) was > 100 µM (inactive). For the same compound, the GI50 (HCC 2998) was 46 µM (inactive), the GI50 (HCT-116) was 38.9 µM (inactive) and the GI50 (HCT-15) was 25.2 µM. For the same compound, the GI50 (HL-60) was 6.14 µM (inactive), the GI50 (HOP-62) was 94.8 µM (inactive) and the GI50 (HOP-92) was 50.6 µM (inactive). For the same compound, the GI50 (HT-29) was 12 µM (inactive), the GI50 (Hs-578T) was 50.1 µM (inactive) and the GI50 (IGROV-1) was 26.2 µM (inactive). The GI50 (K562) was 37.3 µM (inactive), the GI50 (KM12) was 17.2 µM (inactive) and the GI50 (M14) was 19.9 µM (inactive). For the same compound, the GI50 (MCF7) was > 100 µM (inactive), the GI50 (MDA-MB-231) was > 100 µM (inactive) and the GI50 (MDA-MB-435) was 54.3 µM (inactive). For the same compound, the GI50 (MDA-N) was 56.9 µM (inactive), the GI50 (MOLT-4) was > 100 µM (inactive) and the GI50 (Malme-3M) was 60.3 µM (inactive). The GI50 (NCI-H226) was > 100 µM (inactive), the GI50 (NCI-H23) was > 100 µM (inactive) and the GI50 (NCI-H460) was 54.6 µM (inactive). For the same compound, the GI50 (NCI-H522) was 21.3 µM (inactive), the GI50 (NCI/ADR-RES) was > 100 µM (inactive) and the GI50 (OVCAR-3) was 89.1 µM (inactive). For the same compound, the GI50 (OVCAR-4) was 83.6 µM (inactive), the GI50 (OVCAR-5) was 31.8 µM (inactive) and the GI50 (OVCAR-8) was > 100 µM (inactive). For the same compound, the GI50 (PC-3) was 90.6 µM (inactive), the GI50 (RPMI-8226) was 27.6 µM (inactive) and the GI50 (RXF 393) was > 100 µM (inactive). For the same compound, the GI50 (SF-268) was > 100 µM (inactive), the GI50 (SF-295) was 40.7 µM (inactive) and the GI50 (SF-539) was 43.6 µM (inactive). The GI50 (SK-MEL-28) was 22.3 µM (inactive), the GI50 (SK-MEL-2) was 27.2 µM (inactive) and the GI50 (SK-MEL-5) was 22.3 µM (inactive). For the same compound, the GI50 (SK-OV-3) was > 100 µM (inactive), the GI50 (SN12C) was > 100 µM (inactive) and the GI50 (SNB-19) was > 100 µM (inactive). For the same compound, the GI50 (SR) was > 100 µM (inactive), the GI50 (SW-620) was 46.9 µM (inactive) and the GI50 (T47D) was > 100 µM (inactive). The GI50 (TK-10) was > 100 µM (inactive), the GI50 (U-251) was > 100 µM (inactive) and the GI50 (UACC-257) was 21.6 µM (inactive). For the same compound, the GI50 (UACC-62) was 24.3 µM (inactive) and the GI50 (UO-31) was 50.4 µM (inactive).
